Here are results for seven compounds from patent publication US20100075907A1, “NEUROMEDIN U RECEPTOR AGONISTS AND USES THEREOF” (priority 2006, published 2010).

Molecules are shown by their SMILES. Non-standard residues stand in square brackets, D forms with d. Residues, ends and D or L forms follow the SMILES beside them. hArg = N=C(N)NCCCC[C@H](N)C(=O)O; dNle = CCCC[C@@H](N)C(=O)O

By EC50 is commonly meant the concentration at which the effect is half-maximal.

One assay addresses T1, hNMUR1 (Homo sapiens, UniProt Q9HB89).
T1 sequence (Q9HB89 1-426): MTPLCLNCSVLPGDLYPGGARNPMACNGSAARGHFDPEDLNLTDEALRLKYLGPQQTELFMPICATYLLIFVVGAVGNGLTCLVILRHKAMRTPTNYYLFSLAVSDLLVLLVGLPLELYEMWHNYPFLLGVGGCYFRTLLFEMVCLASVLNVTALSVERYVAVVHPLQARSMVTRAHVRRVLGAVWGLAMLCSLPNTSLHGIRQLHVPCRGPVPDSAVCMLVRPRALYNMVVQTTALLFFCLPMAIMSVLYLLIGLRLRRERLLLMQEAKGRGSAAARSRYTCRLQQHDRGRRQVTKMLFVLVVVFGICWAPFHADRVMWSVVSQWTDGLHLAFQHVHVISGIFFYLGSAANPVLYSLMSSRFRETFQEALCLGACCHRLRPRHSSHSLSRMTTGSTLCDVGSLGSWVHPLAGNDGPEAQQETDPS
In words: In vitro functional assay, HEK-hR1 cells. Further details: expressed in transfected cells; host or cells: FLP-In CHO or HEK-293 FLP-In cells (pcDNA5); HEK-293/aeq17 lines (pIRES-puro) were also made. The following applies: Table 8, HEK-hR1, functional. Format: cell-based. An excerpt:
Human, mouse or rat cDNAs encoding NMUR1 or NMUR2 (as described in Howard et al. Nature 406: 70-74 (2000) were subcloned in pcDNA5 (Invitrogen) and transfected into FLP-In CHO cells and HEK-293 FLP-In cells purchased from Invitrogen (Carlsbad, Calif.) using lipofectamine (Invitrogen). The Flp-In system allows integration and expression of a particular gene of interest at a specific genomic location utilizing the Flp recombinase from yeast. The transfected cells were selected by growth in medium containing 200 μg/mL hygromycin (Invitrogen). Populations were frozen at early passage numbers, and these stocks were used for further studies. Stable clones that expressed the mRNAs were identified functionally by FLIPR as well as by RT-PCR. […] Two different rodent NMUR1 cell lines were thus generated: one with the codon as predicted from the genomic databases and another cell line with an engineered methionine (ATG) as the start codon. Additionally, stable cell lines expressing the human receptors were generated in HEK-293/aeq17 cells which stably express the aequorin gene under the CMV promoter. The human NMUR2 cDNA was cloned into pcDNA3.1 and human NMUR1 was subcloned into pIRES-puro (Clontech, Mountain View, Calif.), after transfection cells were selected in media containing G418 and either hygromycin (NMUR2) or puromycin (NMUR1).
The NMU receptors signal primarily through Gαq/11 proteins; therefore calcium mobilization assays can be utilized for functional activity.
Stable cell lines expressing human and or rodent NMUR1 or human NMUR2 receptors were plated at a density of 12,000 cells per well overnight on poly-lysine coated 384-well black-walled plates. The following day, the media was removed from the plates and the cells were subsequently loaded with Fluo-3 (Molecular Probes), a calcium sensitive dye, diluted in FLIPR buffer (1× Hank's buffered saline containing 20 mM HEPES, 0.1% BSA, 2.5 mM probenecid (Sigma) and 1.6 mM TR40). All reagents are from Invitrogen unless otherwise noted. Peptide stocks were resuspended in DMSO at a stock concentration of 2 mM and diluted in FLIPR buffer on the day of the experiment to a 4 μM working stock solution.
After a 90 minute incubation at room-temperature, cell plates were loaded onto a FLIPR (Molecular Devices) to monitor cellular fluorescence (excitation=488 nm; emission=540 nm) before and after compound/peptide addition. Eight to twelve point dose responses were tested on NMUR-expressing cell lines using FLIPR with 1 μM peptide as the highest dose. The response after peptide addition was taken as the maximum fluorescence units minus the fluorescence immediately prior to stimulation for each well. EC50 values were calculated using GraphPad Prism (San Diego, Calif.) software.
In addition to FLIPR, NMU receptor function can also be evaluated using an aequorin assay. Stable cell lines expressing the aequorin jelly fish gene can be used to report the activation of GPCRs by monitoring intracellular calcium mobilization. The objective is to identify compounds which specifically stimulate aequorin bioluminescence. Calcium-dependent luminescence is generated by the treatment of cells with the coelenterate luciferin, coelenterazine. Briefly, confluent monolayers of HEK-293/aeq 17 cells expressing hNMUR1 or hNMUR2 are “charged” with coelenterazine (Molecular Probes, Carlsbad, Calif.). Confluent T75 flasks are rinsed with media containing 300 μM glutathione and 0.1% FBS. Cells are incubated at 37° C. for one hour in 8 mL media, 0.1% FBS, 300 μM glutathione, and 20 μM coelenterazine. T75 flasks are subsequently rinsed with 6 mL ECB buffer (140 mM NaCl, 20 mM KCl, 20 mM HEPES, 5 mM glucose, 1 mM MgCl, 1 mM CaCl2, 0.1 mg/mL BSA, PH 7.3-7.4). Cells are removed from the flask in ECB buffer, pelleted, and resuspended at a density of 2×10^5 cells/mL. Agonists are added to the cells and activity is determined using a luminometer. […]
In the case of `CC(C)C[C@@H](NC(=O)[C@H](Cc1ccccc1)NC(=O)[C@@H](N)Cc1ccc(O)cc1)C(=O)N[C@@H](Cc1c[nH]c2ccccc12)C(=O)N[C@@H](CCCNC(=N)N)C(=O)N1CCC[C@H]1C(=O)N[C@@H](CCCNC(=N)N)C(=O)N[C@@H](CC(N)=O)C(N)=O` [Agonist B, YF-(D-L)-WRPRN-CONH2] (H-YF[dL]WRPRN-NH2), the “% Activity” value worked out at 103%.
For the compound `C[C@@H](NC(=O)[C@H](Cc1ccccc1)NC(=O)[C@@H](N)Cc1ccc(O)cc1)C(=O)N[C@@H](Cc1c[nH]c2ccccc12)C(=O)N[C@@H](CCCNC(=N)N)C(=O)N1CCC[C@H]1C(=O)N[C@@H](CCCNC(=N)N)C(=O)N[C@@H](CC(N)=O)C(N)=O` [Agonist D, YF-(D-A)-WRPRN-CONH2] (H-YF[dA]WRPRN-NH2; N-terminus assumed), the “% Activity” value amounted to 96%.
On the same count and under the same terms, the value for `CC(=O)N[C@@H](Cc1ccccc1)C(=O)N[C@H](CC(C)C)C(=O)N[C@@H](Cc1c[nH]c2ccccc12)C(=O)N[C@@H](CCCNC(=N)N)C(=O)N1CCC[C@H]1C(=O)N[C@@H](CCCNC(=N)N)C(=O)N[C@@H](CC(N)=O)C(N)=O` [Agonist E, Ac-F-(D-L)-WRPRN-CONH2] (Ac-F[dL]WRPRN-NH2) was 100%.

Still in this assay, the particulars now being: Table 9, HEK-hR1, functional.
For `CC(C)C[C@H](NC(=O)[C@H](Cc1c[nH]c2ccccc12)NC(=O)[C@@H](N)Cc1ccccc1)C(=O)N[C@@H](Cc1ccccc1)C(=O)N[C@@H](CCCNC(=N)N)C(=O)N1CCC[C@H]1C(=O)N[C@@H](CCCCNC(=N)N)C(=O)N[C@@H](CC(N)=O)C(N)=O` [Agonist I, FWLFRP-(Harg)-N-CONH2] (H-FWLFRP[hArg]N-NH2), the “% Activity” value is recorded as 7% and the EC50 is greater than 1 µM.
The corresponding values for `CC(C)C[C@H](NC(=O)[C@H](Cc1c[nH]c2ccccc12)NC(=O)[C@@H](N)Cc1ccccc1)C(=O)N[C@@H](Cc1ccccc1)C(=O)N[C@@H](CCCNC(=N)N)C(=O)N[C@@H](C)C(=O)N[C@@H](CCCCNC(=N)N)C(=O)N[C@@H](CC(N)=O)C(N)=O` [Agonist J, FWLFRA-(Harg)-N-CONH2] (H-FWLFRA[hArg]N-NH2) are 0% and greater than 1 µM.
The corresponding values for `CCCC[C@@H](NC(=O)[C@H](CCCNC(=N)N)NC(=O)[C@H](C)NC(=O)[C@H](CCCNC(=N)N)NC(=O)[C@H](Cc1ccccc1)NC(=O)[C@H](CC(C)C)NC(=O)[C@H](Cc1ccccc1)NC(=O)[C@@H](N)Cc1c[nH]c2ccccc12)C(N)=O` [Agonist K, WFLFRAR-(D-Nle)-CONH2] (H-WFLFRAR[dNle]-NH2) are 61% and 0.4 µM.
The corresponding values for `CC(C)C[C@H](NC(=O)[C@H](Cc1c[nH]c2ccccc12)NC(=O)[C@H](Cc1ccccc1)NC(=O)CNC(=O)[C@H](CCCNC(=N)N)NC(=O)[C@H](CO)NC(=O)[C@H](CCC(N)=O)NC(=O)[C@H](CO)NC(=O)[C@H](C)NC(=O)[C@H](Cc1ccccc1)NC(=O)[C@@H]1CCCN1C(=O)[C@H](CO)NC(=O)[C@H](CCC(N)=O)NC(=O)[C@H](Cc1ccccc1)NC(=O)[C@H](CCC(=O)O)NC(=O)[C@H](CCC(=O)O)NC(=O)[C@H](CC(=O)O)NC(=O)[C@@H](NC(=O)[C@H](CCCNC(=N)N)NC(=O)[C@@H](N)Cc1ccccc1)C(C)C)C(=O)N[C@@H](Cc1ccccc1)C(=O)N[C@@H](CCCNC(=N)N)C(=O)N1CCC[C@H]1C(=O)N[C@@H](CCCCNC(=N)N)C(=O)N[C@@H](CC(N)=O)C(N)=O` [Agonist O] (H-FRVDEEFQSPFASQSRGFWLFRP[hArg]N-NH2; N-terminus assumed) are 35% and 0.42 µM.
